pIC50: −log10 of the molar value. Like-named read-outs stand apart in the source and are kept apart here.
Columns and labels:
[1] = target: T1, CD40:CD154 interaction (Homo sapiens, UniProt P29965); assay: Binding assay (ELISA): compound binds CD154 and inhibits binding of biotin-CD154 to immobilized CD40-Ig (Example 7); conditions: read-out: IC50 for CD40:CD154 binding interruption
T1 construct: made in house; host or cells: Pichia (CD40-Ig only)
T1 sequence (P29965 116-261 limits assumed): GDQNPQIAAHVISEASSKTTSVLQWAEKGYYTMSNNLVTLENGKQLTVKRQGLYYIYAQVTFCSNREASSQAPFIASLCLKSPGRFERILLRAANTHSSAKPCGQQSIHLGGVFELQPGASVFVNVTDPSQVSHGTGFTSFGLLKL
Description: (§1) IC50, as used herein, is the concentration at which a compound interrupts the interaction of a protein and its receptor to 50% interaction in the assay shown in Example 7 (for interruption of CD40:CD154 interaction) and Example 8 (for interruption of TNF-α:TNFRp60 interaction). Examples of such protein and receptor pairs are CD40:CD154 and TNF-α:TNFRp60.
Binding Assay to Assess whether a compound Binds CD154 and Inhibits CD40:CD154 Interaction
1) Ninety-six well plates of Nunc Maxisorp were coated with 100 μl of 5-10 μg/ml human CD40-Ig produced in Pichia cells, (in PBS pH 7.2) per well, covered with plate sealers (Costar, Cat. No. 3095) and stored overnight at 4° C.
2) The CD40-Ig-coated plates were shook out and blotted dry.
3) The CD40-Ig-coated plates were blocked with 300 μl per well of PBS (0.05% Tween-20, 1% BSA, pH 7.2) at RT for one hour or in the refrigerator for up to 3 weeks.
4) The CD40-Ig-coated plates were washed 3× with PBS+0.05% Tween-20 pH 7.4 with plate washer at RT.
5) The plates were optionally blotted dry.
6) Primary Screening of compounds: • a. Compounds were titrated in 100 mM Hepes+0.005% BSA pH 7.2 in Titertube (Bio-Rad Laboratories) and 50 μl of titrated compounds was then added into each well of the plate. IC50 parameters: • One 7 point curve per compound was generated where each point was run in triplicate. […] Fifty μl/well of 0.07-1.6 μg/ml biotin-CD154 in 100 mM Hepes+0.005% BSA (pH 7.2) was added per well. Final concentration of biotin-CD154 was […]. It was mixed with compound in each well in the plate. • c. The plates were covered with plate sealer and incubated for one-hour at RT.
7) The plates were washed 3× with plate washer with PBS+0.05% Tween-20 (pH 7.4) at RT.
8) The plates were optionally blotted dry.
9) 100 μl of a 1/300,000 dilution of HRP-Strep/Avidin (Jackson Immuno Research Code3 #016-030-084) was added to each well. Dilution buffer was: PBS+0.05% Tween-20. The plates were covered with plate sealer and incubated for one hour at room temperature.
10) The plates were washed with plate washer 3× at RT.
11) The plates were optionally blotted dry.
12) 100 μl/well of TMB(1-component) (Kirkegarrd & Perry Labs, Prod #50-76-04) was added to each well and incubated at RT about 10 min.
13) 100 μl/well of 0.18M H2SO4 was added to stop reaction in the plates.
14) The plates were read within 30 minutes of stopping the reaction at […] on a microplate reader (Molecular Devices Co.).
Compounds that bound to CD154 and blocked CD40:CD154 interaction prevented CD154 from binding to immobilized CD40-Ig and gave a low absorbance reading.
• 1. Total reaction: Reaction well contained 50 μl of 100 mM Hepes/0.005% BSA (no test compound) • 2. Positive control: Reaction well contained 10 μl of 1 mg/ml 5c8 (anti-CD154 mAb) and 50 μl of 100 mM Hepes/0.005% BSA. • 3. Blank control: Reaction well contained 100 μl 100 mM Hepes/0.005% BSA. • 4. Compound control: Titration series in triplicate of BIO-002108-00.

[2] = target: T2, TNF-α:TNFRp60 interaction (Homo sapiens, UniProt P01375); assay: Binding assay (ELISA): compound inhibits binding of biotin-TNF-α to immobilized TNFRp60 (Example 8); conditions: average value; read-out: IC50 for TNF-α:TNFRp60 binding interruption
T2 construct: purchased R&D System
Description: as §1
Binding Assay to Assess whether a Compound Binds to TNF-α and Inhibits TNF-α/TNFRp60 Interaction
1) Ninety-six well plates of Nunc Maxisorp were coated with 100 μl/well of 0.6 ug/ml tumor necrosis factor receptor p60 (TNFRp60) (Browning, J. L.; Douglas, I.; Ngam-ek, A.; Bourdon, P. R.; Ehrenfels, B. N.; Miatkowski, K.; Zafari, M.; Yampaglia, A. M.; Lawton, P.; Meier, W.; Benjamin, C. P.; Hession, C. J. Immunol. 1995, 154, 33-46) in PBS, pH 7.2, covered with plate sealers (Costar, Cat. No. 3095) and stored overnight at 4° C.
2) The coated plates were shook out and blotted dry.
3) TNFRp60-coated plates were blocked with 300 μl per well of PBS (0.05% Tween-20, 1% BSA, made from media prep) at 4° C. for one hour. Plates were stored for 3 weeks at 4° C. […]
14) The plates were read within 30 minutes of adding stop reagent at […] by microplate reader (Molecular Devices Co.) […]
Compounds that blocked TNF-α/TNFRp60 interaction prevented TNF-α from binding to immobilized TNFRp60 and gave a low absorbance reading. […]

[3] = compounds 12 and 14-21: 'considered to have' the IC50 range (not worded as 'shown')
[4] = compounds 'shown to have' the IC50 range, assay of Example 7, top concentration 125 μM

T2 sequence (P01375 77-233 limits assumed, species assumed): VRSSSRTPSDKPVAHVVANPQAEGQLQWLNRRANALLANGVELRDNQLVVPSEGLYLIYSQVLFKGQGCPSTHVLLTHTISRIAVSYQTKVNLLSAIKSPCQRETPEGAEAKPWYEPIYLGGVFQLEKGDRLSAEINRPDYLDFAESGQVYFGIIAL

Row | pIC50 [1, 3] | pIC50 [1, 4] | SMILES | also measured
1 | 3.90 to 4.30 |  | O=C(NC1CCc2ccccc21)c1cc(-c2cc(C(=O)NC(C(=O)O)C3CCCCC3)nc(C(=O)N3CCCC3CN3CCCC3)c2)cc(C(=O)N2CCCC2CN2CCCC2)n1 (stereo not shown) [Compound 12] | 
2 |  | > 4.30 | O=C(NCCCc1ccccc1)c1cc(-c2cc(C(=O)NC(C(=O)O)C3CCCCC3)nc(C(=O)N3CCCC3CN3CCCC3)c2)cc(C(=O)N2CCCC2CN2CCCC2)n1 (stereo not shown) [Compound 4] | 
3 | 3.90 to 4.30 |  | CC(C)(C)[C@H](NC(=O)c1cc(-c2cc(C(=O)NCCCc3ccccc3)nc(C(=O)N3CCC[C@H]3CN3CCCC3)c2)cc(C(=O)N2CCC[C@H]2CN2CCCC2)n1)C(=O)O [Compound 21] | 
4 | 3.90 to 4.30 |  | CCC(C)C(NC(=O)c1cc(-c2cc(C(=O)NCc3ccccc3Br)nc(C(=O)N3CCCC3CN(C)C3CCCCC3)c2)cc(C(=O)N2CCCC2CN(C)C2CCCCC2)n1)C(=O)O (stereo not shown) [Compound 18] | 
5 |  | > 4.30 | O=C(Nc1cccc(S(=O)(=O)Nc2cc3ccccc3cc2C(=O)O)c1)Nc1cccc(S(=O)(=O)Nc2cc3ccccc3cc2C(=O)O)c1 [BIO-002108-00, reference compound] | pIC50 [2]: < 3.90
6 |  | < 3.90 | CCC(C)C(NC(=O)c1cc(-c2cc(C(=O)NCc3cccc(OC)c3OC)nc(C(=O)N3CCCC3CN3CCCC3)c2)cc(C(=O)N2CCCC2CN2CCCC2)n1)C(=O)O (stereo not shown) [Compound 2] | 
7 | 3.90 to 4.30 |  | O=C(NC/C=C/c1ccccc1)c1cc(-c2cc(C(=O)NC(C(=O)O)C3CCCCC3)nc(C(=O)N3CCCC3CN3CCCC3)c2)cc(C(=O)N2CCCC2CN2CCCC2)n1 (stereo not shown) [Compound 16] | 
8 |  | 3.90 to 4.30 | CCC(C)C(NC(=O)c1cc(-c2cc(C(=O)NCc3ccccc3Br)nc(C(=O)N3CCCC3CN3CCCC3)c2)cc(C(=O)N2CCCC2CN2CCCC2)n1)C(=O)O (stereo not shown) [Compound 1] | 
9 |  | > 4.30 | O=C(NCCC(c1ccccc1)c1ccc([N+](=O)[O-])cc1)c1cc(-c2cc(C(=O)NC(C(=O)O)C3CCCCC3)nc(C(=O)N3CCCC3CN3CCCC3)c2)cc(C(=O)N2CCCC2CN2CCCC2)n1 (stereo not shown) [Compound 11] | 
10 | 3.90 to 4.30 |  | COC(=O)[C@@H](NC(=O)c1cc(-c2cc(C(=O)NCCCc3ccccc3)nc(C(=O)N3CCC[C@H]3CN3CCCC3)c2)cc(C(=O)N2CCC[C@H]2CN2CCCC2)n1)C1CCCCC1 [Compound 20] | 
11 |  | 3.90 to 4.30 | O=C(NCCCc1ccc([N+](=O)[O-])cc1)c1cc(-c2cc(C(=O)NC(C(=O)O)C3CCCCC3)nc(C(=O)N3CCCC3CN3CCCC3)c2)cc(C(=O)N2CCCC2CN2CCCC2)n1 (stereo not shown) [Compound 7] | 
12 |  | 3.90 to 4.30 | Nc1cccc(C(CCNC(=O)c2cc(-c3cc(C(=O)NC(C(=O)O)C4CCCCC4)nc(C(=O)N4CCCC4CN4CCCC4)c3)cc(C(=O)N3CCCC3CN3CCCC3)n2)c2ccccc2)c1 (stereo not shown) [Compound 10] | 
13 | 3.90 to 4.30 |  | CCC(C)C(NC(=O)c1cc(-c2cc(C(=O)NCc3ccccc3Br)nc(C(=O)N3CCCC3CN3CCCCC3)c2)cc(C(=O)N2CCCC2CN2CCCCC2)n1)C(=O)O (stereo not shown) [Compound 19] | 
14 | 3.90 to 4.30 |  | CCC(C)C(NC(=O)c1cc(-c2cc(C(=O)NCc3ccccc3Br)nc(C(=O)N3CCCC3CN(C)C)c2)cc(C(=O)N2CCCC2CN(C)C)n1)C(=O)O (stereo not shown) [Compound 17] | 
15 | 3.90 to 4.30 |  | O=C(NCCCc1ccc(Br)cc1)c1cc(-c2cc(C(=O)N[C@H](C(=O)O)C3CCCCC3)nc(C(=O)N3CCC[C@H]3CN3CCCC3)c2)cc(C(=O)N2CCC[C@H]2CN2CCCC2)n1 [Compound 14] | 
16 |  | 3.90 to 4.30 | Nc1ccc(CCCNC(=O)c2cc(-c3cc(C(=O)NC(C(=O)O)C4CCCCC4)nc(C(=O)N4CCCC4CN4CCCC4)c3)cc(C(=O)N3CCCC3CN3CCCC3)n2)cc1 (stereo not shown) [Compound 8] | 
17 |  | > 4.30 | O=C(NCc1cccc(-c2ccccc2)c1)c1cc(-c2cc(C(=O)N[C@H](C(=O)O)C3CCCCC3)nc(C(=O)N3CCC[C@H]3CN3CCCC3)c2)cc(C(=O)N2CCC[C@H]2CN2CCCC2)n1 [Compound 6] | 
18 |  | < 3.90 | CCC(C)C(NC(=O)c1cc(-c2cc(C(=O)NC(C)(C)Cc3ccc(F)cc3)nc(C(=O)N3CCCC3CN3CCCC3)c2)cc(C(=O)N2CCCC2CN2CCCC2)n1)C(=O)O (stereo not shown) [Compound 3] | 
19 | > 4.30 |  | O=C(NCCCCc1ccccc1)c1cc(-c2cc(C(=O)N[C@H](C(=O)O)C3CCCCC3)nc(C(=O)N3CCC[C@H]3CN3CCCC3)c2)cc(C(=O)N2CCC[C@H]2CN2CCCC2)n1 [Compound 15] | 
20 |  | 3.90 to 4.30 | O=C(NCc1ccc2ccccc2c1)c1cc(-c2cc(C(=O)N[C@H](C(=O)O)C3CCCCC3)nc(C(=O)N3CCC[C@H]3CN3CCCC3)c2)cc(C(=O)N2CCC[C@H]2CN2CCCC2)n1 [Compound 13] | 
21 |  | > 4.30 | O=C(NCCC(c1ccccc1)c1ccccc1)c1cc(-c2cc(C(=O)N[C@H](C(=O)O)C3CCCCC3)nc(C(=O)N3CCC[C@H]3CN3CCCC3)c2)cc(C(=O)N2CCC[C@H]2CN2CCCC2)n1 [Compound 5] | 
